pIC50: −log10 of the molar value.
Tested on: 138582-337-R-J1-PDC spheroids with HUVEC/MSC, viability
Experiment: Anticancer human tumor 138582-337-R-J1-PDC patient-derived Merkel cell tumor cell line growth inhibition [IpAb]
Conditions: for pIC50: curve of first compound; for viability, T/C: stronger effect = lower value
Method in brief: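 Multi-cell spheroids of 60% tumour cells, 25% HUVEC and 15% MSC in ultra-low-attachment U-bottom wells, treated with agents combined with ipatasertib or abemaciclib. Half-log ranges top out near clinical Cmax, or 10 microM when Cmax is unknown.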

[1] = second compound 0.01 µM, first compound 0.0316 µM
[2] = second compound 0.01 µM, first compound 0.1 µM
[3] = second compound 0.01 µM, first compound 0.316 µM
[4] = second compound 0.01 µM, first compound 1 µM
[5] = second compound 0.01 µM, first compound 3.16 µM
[6] = second compound 0.01 µM, first compound 10 µM
[7] = second compound 0.0316 µM, first compound 0.0316 µM
[8] = second compound 0.0316 µM, first compound 0.1 µM
[9] = second compound 0.0316 µM, first compound 0.316 µM
[10] = second compound 0.0316 µM, first compound 1 µM
[11] = second compound 0.0316 µM, first compound 3.16 µM
[12] = second compound 0.0316 µM, first compound 10 µM
[13] = second compound 0.1 µM, first compound 0.0316 µM
[14] = second compound 0.1 µM, first compound 0.1 µM
[15] = second compound 0.1 µM, first compound 0.316 µM
[16] = second compound 0.1 µM, first compound 1 µM
[17] = second compound 0.1 µM, first compound 3.16 µM
[18] = second compound 0.1 µM, first compound 10 µM
[19] = second compound 0.316 µM, first compound 0.0316 µM
[20] = second compound 0.316 µM, first compound 0.1 µM
[21] = second compound 0.316 µM, first compound 0.316 µM
[22] = second compound 0.316 µM, first compound 1 µM
[23] = second compound 0.316 µM, first compound 3.16 µM
[24] = second compound 0.316 µM, first compound 10 µM
[25] = second compound 1 µM, first compound 0.0316 µM
[26] = second compound 1 µM, first compound 0.1 µM
[27] = second compound 1 µM, first compound 0.316 µM
[28] = second compound 1 µM, first compound 1 µM
[29] = second compound 1 µM, first compound 3.16 µM
[30] = second compound 1 µM, first compound 10 µM
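Further: spheroids exposed to compounds for seven days.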
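Wherever viability, T/C is given: 100% = DMSO vehicle control viability.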

Row | SMILES | pIC50 (second compound 0.01 µM) | pIC50 (second compound 0.0316 µM) | pIC50 (second compound 0.1 µM) | pIC50 (second compound 0.316 µM) | pIC50 (second compound 1 µM) | viability, T/C [1] | viability, T/C [2] | viability, T/C [3] | viability, T/C [4] | viability, T/C [5] | viability, T/C [6] | viability, T/C [7] | viability, T/C [8] | viability, T/C [9] | viability, T/C [13] | viability, T/C [14] | viability, T/C [19] | viability, T/C [20] | viability, T/C [25] | viability, T/C [26] | other results
1 | C=CC(=O)N1CCN(c2nc(=O)n(-c3c(C)ccnc3C(C)C)c3nc(-c4c(O)cccc4F)c(F)cc23)C(C)C1 (stereo not given) + CCN1CCN(Cc2ccc(Nc3ncc(F)c(-c4cc(F)c5nc(C)n(C(C)C)c5c4)n3)nc2)CC1 | < 5.00 | < 5.00 | < 5.00 | < 5.00 | < 5.00 | 107% | 107% | 121% | 121% | 143% | 176% | 98.7% | 95.7% | 90.7% | 83.7% | 90.6% | 94.8% | 94.3% | 104% | 96.8% | viability, T/C [10]: 116%; viability, T/C [11]: 125%; viability, T/C [12]: 186%; viability, T/C [15]: 104%; viability, T/C [16]: 119%; viability, T/C [17]: 139%; viability, T/C [18]: 218%; viability, T/C [21]: 92.8%; viability, T/C [22]: 105%; viability, T/C [23]: 144%; viability, T/C [24]: 229%; viability, T/C [27]: 111%; viability, T/C [28]: 118%; viability, T/C [29]: 135%; viability, T/C [30]: 282%
2 | Cn1ncc(Cl)c1-c1cc(C(=O)NC(CN)Cc2cccc(F)c2)sc1Cl (stereo not given) + CCN1CCN(Cc2ccc(Nc3ncc(F)c(-c4cc(F)c5nc(C)n(C(C)C)c5c4)n3)nc2)CC1 | 5.82 | 5.90 | 5.92 | 5.92 | 6.10 | 88.8% | 73.4% | 61.9% | 50.3% | 50.6% | 0.19% | 83.8% | 70.8% | 58.5% | 84.4% | 84.6% | 92.8% | 81.8% | 94.2% | 95.3% | viability, T/C [10]: 50.2%; viability, T/C [11]: 45.4%; viability, T/C [12]: 0.24%; viability, T/C [15]: 61.1%; viability, T/C [16]: 48.9%; viability, T/C [17]: 40.7%; viability, T/C [18]: 0.17%; viability, T/C [21]: 68%; viability, T/C [22]: 52.1%; viability, T/C [23]: 35.3%; viability, T/C [24]: 0.21%; viability, T/C [27]: 70.3%; viability, T/C [28]: 39.9%; viability, T/C [29]: 25.1%; viability, T/C [30]: 0.27%
3 | Cn1ncnc1[C@H]1c2n[nH]c(=O)c3cc(F)cc(c23)N[C@@H]1c1ccc(F)cc1 + CCN1CCN(Cc2ccc(Nc3ncc(F)c(-c4cc(F)c5nc(C)n(C(C)C)c5c4)n3)nc2)CC1 | < 7.00 | < 7.00 | < 7.00 | < 7.00 | < 7.00 | 78.5% | 78.9% |  |  |  |  | 69.8% | 66.2% |  | 90.8% | 86.4% | 78.3% | 72.4% | 90.9% | 91.2% | viability, T/C (second compound 0.01 µM, first compound 0.000316 µM): 102%; viability, T/C (second compound 0.01 µM, first compound 0.001 µM): 93.4%; viability, T/C (second compound 0.01 µM, first compound 0.00316 µM): 91.8%; viability, T/C (second compound 0.01 µM, first compound 0.01 µM): 80.7%; viability, T/C (second compound 0.0316 µM, first compound 0.000316 µM): 96.3%; viability, T/C (second compound 0.0316 µM, first compound 0.001 µM): 102%; viability, T/C (second compound 0.0316 µM, first compound 0.00316 µM): 89.5%; viability, T/C (second compound 0.0316 µM, first compound 0.01 µM): 76.5%; viability, T/C (second compound 0.1 µM, first compound 0.000316 µM): 89.7%; viability, T/C (second compound 0.1 µM, first compound 0.001 µM): 89.4%; viability, T/C (second compound 0.1 µM, first compound 0.00316 µM): 76.7%; viability, T/C (second compound 0.1 µM, first compound 0.01 µM): 78.4%; viability, T/C (second compound 0.316 µM, first compound 0.000316 µM): 85%; viability, T/C (second compound 0.316 µM, first compound 0.001 µM): 95.8%; viability, T/C (second compound 0.316 µM, first compound 0.00316 µM): 87.2%; viability, T/C (second compound 0.316 µM, first compound 0.01 µM): 80.3%; viability, T/C (second compound 1 µM, first compound 0.000316 µM): 99%; viability, T/C (second compound 1 µM, first compound 0.001 µM): 95.7%; viability, T/C (second compound 1 µM, first compound 0.00316 µM): 87.3%; viability, T/C (second compound 1 µM, first compound 0.01 µM): 79.5%

Source: PubChem BioAssay AID2060343 (Molecular Pharmacology Branch, DTP, NCI, 2025)
